Test results as given in article PMC9227106 (Viruses, 2022).
“And” between values parts separate entries of the source, which are not always exact repeats. Identical values can stand only once. Like-named read-outs stand apart in the source and are kept apart here.

What was measured:
HIV-1 NF462 = assay: Inhibition assay of HIV replication in HIV-infected MDM (p24 ELISA); type: cell-based; details: for inhibition of HIV-1 replication in MDM / inhibition at 10 µM: 10 µM; for inhibition of HIV-1 replication in MDM: two healthy donors 1 and 2, result in words; for inhibition at 10 µM: 8 days; for IC50: read-out: MDM IC50; for MDM SI: selective index, calculated as CC50/IC50 in MDM
[1] = Cell-based cytotoxicity analysis, WST-1 assay (HeLa cell); details: human; for viability at 48 h, 10 µM: vs DMSO; for CC50: 50% cytotoxic concentration, HeLa cells, WST-1
[2] = Cell-based cytotoxicity analysis, WST-1 assay (MDM cell); details: human
Flag-Vpr in HeLa cells [3] = assay: Expression level of Vpr assessed by Western blotting analysis; type: cell-based, HIV-1; details: 10 μM, 44 h post-treatment
[4] = tested on: Vpr-induced G2/M arrest in Vpr transfected HeLa cells; assay: Cell-based G2 arrest inhibition assay using […]; set-up: species or system human; details: 10 µM, 44 h; for G2 arrest recover (CELAVIEW) recover rate vs DMSO(%): added 4 h post-transfection
GST-tagged Vpr protein = target: T1, GST-tagged Vpr protein (Human immunodeficiency virus type 1 group M subtype B, UniProt P12520); assay: Surface plasmon resonance (SPR) binding analysis; set-up: species or system HIV-1; details: for direct binding to Vpr (SPR): 50 μM compound, GST-Vpr on sensor chip, result in words; for Vpr Binding Kd: SPR (Biacore), GST-Vpr, 3.13 to 100 µM, two independent experiments
T1 construct: made in house; host or cells: E. coli
T1 sequence (P12520 whole entry): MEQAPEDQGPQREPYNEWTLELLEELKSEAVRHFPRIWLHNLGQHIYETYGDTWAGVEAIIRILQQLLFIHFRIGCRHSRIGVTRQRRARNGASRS

Flag-Vpr in HeLa cells [5] = assay: Localization of Vpr visualized by confocal microscopy; type: cell-based, HIV-1; details: 10 μM, 44 h post-treatment
[6] = tested on: Vpr-induced G2/M arrest in Vpr transfected HeLa cells; assay: Analysis of the cell cycle using flow cytometry; type: cell-based, human; details: for recovery of the G2-arrest mediated by Vpr (flow cytometry): 10 μM, Vpr-expressing HeLa cells, result in words; for G2 arrest recover (Flow cytometry) Vpr G1% / G2 arrest recover (Flow cytometry) Vpr G2% / G2 arrest recover (Flow cytometry) Vpr G2/G1: Flag-Vpr transfected HeLa; for G2 arrest recover (Flow cytometry) Vpr G1% / G2 arrest recover (Flow cytometry) Vpr G2% / G2 arrest recover (Flow cytometry) Vpr G2/G1 / G2 arrest recover (Flow cytometry) ZsG G1% / G2 arrest recover (Flow cytometry) ZsG G2% / G2 arrest recover (Flow cytometry) ZsG G2/G1: 10 µM; for G2 arrest recover (Flow cytometry) ZsG G1% / G2 arrest recover (Flow cytometry) ZsG G2% / G2 arrest recover (Flow cytometry) ZsG G2/G1: control vector (ZsG) transfected HeLa
[7] = Human immunodeficiency virus 1, MDM donor 1, p24 ELISA, read-out: HIV replication inhibition (%) Donor 1
[8] = Human immunodeficiency virus 1, MDM donor 2, p24 ELISA, read-out: HIV replication inhibition (%) Donor 2
[9] = Human immunodeficiency virus 1, HIV-1 NF462-infected MDM, donors 1 and 4, 8 days, p24 ELISA
[10] = average of n=1 and n=2, read-out: HeLa viability (%) AVERAGE
[11] = replicate 1, read-out: HeLa viability (%) viability n=1
[12] = replicate 2, read-out: HeLa viability (%) viability n=2

COCCCNC(=O)C(=O)N/N=C/c1c(O)ccc2ccccc12 [VTD227, N-[(1E)-2-(2-hydroxynaphthyl)-1-azavinyl]-N′-(3-methoxypropyl)ethane-1,2-diamide]
inhibition of HIV-1 replication in MDM (HIV-1 NF462): potently inhibited HIV-1 replication | inhibition at 10 µM (HIV-1 NF462; [7]): 99.5% | inhibition at 10 µM (HIV-1 NF462; [8]): 103% | IC50 (HIV-1 NF462; [9]): 780 ± 590 nM | MDM SI (HIV-1 NF462): 22.9 | viability at 48 h, 10 µM [1, 10]: 89.2% | viability at 48 h, 10 µM [1, 11]: 84.2% | viability at 48 h, 10 µM [1, 12]: 94.2% | CC50 [1]: 99 ± 22 µM | CC50 at 48 h [2]: 17.9 ± 5.3 µM | viability at 10 days, 10 µM [2]: 82% | expression level of Vpr in HeLa cells (Flag-Vpr in HeLa cells [3]): not affected | G2 arrest recover (CELAVIEW) cell count vs DMSO [4]: 72.8 | G2 arrest recover (CELAVIEW) recover rate vs DMSO(%) [4]: 60.0% | Kd (GST-tagged Vpr protein): 8.8 ± 0.48 µM | localization of Vpr in HeLa cells (Flag-Vpr in HeLa cells [5]): not affected | recovery of the G2-arrest mediated by Vpr (flow cytometry) [6]: recovered the G2-arrest mediated by Vpr | G2 arrest recover (Flow cytometry) Vpr G1% [6]: 41.76% | G2 arrest recover (Flow cytometry) Vpr G2% [6]: 22.13% | G2 arrest recover (Flow cytometry) Vpr G2/G1 [6]: 0.52 and 0.5299 | G2 arrest recover (Flow cytometry) ZsG G1% [6]: 44.2% | G2 arrest recover (Flow cytometry) ZsG G2% [6]: 25.62% | G2 arrest recover (Flow cytometry) ZsG G2/G1 [6]: 0.57 and 0.5796

COc1ccc2ccccc2c1C1C=C(c2ccccc2)NC(=S)N1 (stereo not shown) [VTD232, 4-(2-methoxy-1-naphthyl)-6-phenyl-3,4-dihydro-2(1H)-pyrimidinethione]
inhibition of HIV-1 replication in MDM (HIV-1 NF462): potently inhibited HIV-1 replication | inhibition at 10 µM (HIV-1 NF462; [7]): 99.1% | inhibition at 10 µM (HIV-1 NF462; [8]): 82.2% | IC50 (HIV-1 NF462; [9]): 3.9 ± 4.6 nM | MDM SI (HIV-1 NF462): 7820 | viability at 48 h, 10 µM [1, 10]: 87.5% | viability at 48 h, 10 µM [1, 11]: 88% | viability at 48 h, 10 µM [1, 12]: 87% | CC50 [1]: 57.1 ± 30.9 µM | CC50 at 48 h [2]: 30.5 ± 5 µM | viability at 10 days, 10 µM [2]: 116% | expression level of Vpr in HeLa cells (Flag-Vpr in HeLa cells [3]): not affected | G2 arrest recover (CELAVIEW) cell count vs DMSO [4]: 95.1 | G2 arrest recover (CELAVIEW) recover rate vs DMSO(%) [4]: 49.2% | direct binding to Vpr (SPR) (GST-tagged Vpr protein): did not directly bind to Vpr | Vpr Binding Kd (GST-tagged Vpr protein): Not binding | localization of Vpr in HeLa cells (Flag-Vpr in HeLa cells [5]): not affected | recovery of the G2-arrest mediated by Vpr (flow cytometry) [6]: recovered the G2-arrest mediated by Vpr | G2 arrest recover (Flow cytometry) Vpr G1% [6]: 29.06% | G2 arrest recover (Flow cytometry) Vpr G2% [6]: 39.99% | G2 arrest recover (Flow cytometry) Vpr G2/G1 [6]: 1.376 | G2 arrest recover (Flow cytometry) ZsG G1% [6]: 49.39% | G2 arrest recover (Flow cytometry) ZsG G2% [6]: 11.48% | G2 arrest recover (Flow cytometry) ZsG G2/G1 [6]: 0.2324

CCOc1ccc(OCC(=O)Nc2cc(C)nn2-c2nc(C)c(CC)c(O)n2)cc1 [VTD263, 2-(4-ethoxyphenoxy)-N-[1-(5-ethyl-6-methyl-4-oxo(3-hydropyrimidin-2-yl))-3-methylpyrazol-5-yl]acetamide]
inhibition of HIV-1 replication in MDM (HIV-1 NF462): potently inhibited HIV-1 replication | effect on HIV-1 replication at low concentration (HIV-1 NF462; 0.01 to 0.001 μM, MDM): tended to increase HIV-1 replication | IC50 (HIV-1 NF462; Human immunodeficiency virus 1, […]): 11400 ± 4000 nM | inhibition at 10 µM (HIV-1 NF462; [7]): 91.2% | inhibition at 10 µM (HIV-1 NF462; [8]): 73.3% | effect on HIV-1 virus release at high concentration (HIV-1 NF462; high concentration, MDM): decreased the HIV-1 virus release | MDM SI (HIV-1 NF462): 3.4 | viability at 48 h, 10 µM [1, 10]: 70.1% | viability at 48 h, 10 µM [1, 11]: 65.5% | viability at 48 h, 10 µM [1, 12]: 74.7% | CC50 [1]: > 100 µM | CC50 at 48 h [2]: 38.8 ± 0.76 µM | viability at 10 days, 10 µM [2]: 131% | expression level of Vpr in HeLa cells (Flag-Vpr in HeLa cells [3]): not affected | G2 arrest recover (CELAVIEW) cell count vs DMSO [4]: 81.6 | G2 arrest recover (CELAVIEW) recover rate vs DMSO(%) [4]: 95.5% | direct binding to Vpr (SPR) (GST-tagged Vpr protein): did not directly bind to Vpr | Vpr Binding Kd (GST-tagged Vpr protein): Not binding | localization of Vpr in HeLa cells (Flag-Vpr in HeLa cells [5]): not affected | recovery of the G2-arrest mediated by Vpr (flow cytometry) [6]: recovered the G2-arrest mediated by Vpr | G2 arrest recover (Flow cytometry) Vpr G1% [6]: 45.86% | G2 arrest recover (Flow cytometry) Vpr G2% [6]: 23.17% | G2 arrest recover (Flow cytometry) Vpr G2/G1 [6]: 0.5052 | G2 arrest recover (Flow cytometry) ZsG G1% [6]: 43.35% | G2 arrest recover (Flow cytometry) ZsG G2% [6]: 18.73% | G2 arrest recover (Flow cytometry) ZsG G2/G1 [6]: 0.4321
